Data as given in PMC2248166, “Quantitative peptide binding motifs for 19 human and mouse MHC class I molecules derived using positional scanning combinatorial peptide libraries” (Immunome Research, 2008).

What follows are sequences tested against H-2 D^d (Mus musculus, UniProt P01900) (assay: not given).
Format: binding

Chain of H-2 D^d (P01900 whole entry, looked up): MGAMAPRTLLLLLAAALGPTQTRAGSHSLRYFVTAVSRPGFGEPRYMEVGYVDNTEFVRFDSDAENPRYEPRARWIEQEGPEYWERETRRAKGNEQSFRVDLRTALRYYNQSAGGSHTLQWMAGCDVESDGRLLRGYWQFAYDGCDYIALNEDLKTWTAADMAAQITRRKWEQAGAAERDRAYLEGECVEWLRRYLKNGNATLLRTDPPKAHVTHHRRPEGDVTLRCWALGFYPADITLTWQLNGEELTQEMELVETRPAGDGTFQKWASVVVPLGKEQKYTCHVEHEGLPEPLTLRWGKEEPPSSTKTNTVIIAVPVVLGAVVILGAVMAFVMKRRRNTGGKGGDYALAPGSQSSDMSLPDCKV

Sequence | Normalized average relative binding affinity(ARB)
XXXHXXXXX [3064.0067] | 0.53
XXXIXXXXX [3064.0068] | 0.79
XXXKXXXXX [3064.0069] | 0.39
XXXLXXXXX [3064.0070] | 0.52
XXXMXXXXX [3064.0071] | 0.49
XXXNXXXXX [3064.0072] | 0.40

The sequences below were run against HLA B*5401 (Homo sapiens, UniProt P01889, A329T/C349S/D138N/D201E/E176V/E187T/E204Q/E69G/I76V/K202T/L119W/R155S/R180L/S121T/S35A/S48A/V127L/V306I/V36M/Y140L) (assay: not given).
Format: binding

Sequence | Normalized average relative binding affinity(ARB)
XXXHXXXXX [3064.0067] | 0.21
XXXIXXXXX [3064.0068] | 0.16
XXXKXXXXX [3064.0069] | 0.42
XXXLXXXXX [3064.0070] | 0.74
XXXMXXXXX [3064.0071] | 0.13
XXXNXXXXX [3064.0072] | 0.20

Each sequence was assayed against HLA A*3001 (Homo sapiens, UniProt P04439, D140H/D185E/E176W/F33S/G80R/H175R/K168Q/R138E/R41S) (assay: biochemical).
Format: binding

Sequence | Normalized average relative binding affinity(ARB)
XXXHXXXXX [3064.0067] | 0.45
XXXIXXXXX [3064.0068] | 0.34
XXXKXXXXX [3064.0069] | 0.32
XXXLXXXXX [3064.0070] | 0.52
XXXMXXXXX [3064.0071] | 0.38
XXXNXXXXX [3064.0072] | 0.31

What follows are sequences tested against H-2 D^b (Mus musculus, UniProt P01899) (assay: not given).
Format: binding

Chain of H-2 D^b (P01887 21-119): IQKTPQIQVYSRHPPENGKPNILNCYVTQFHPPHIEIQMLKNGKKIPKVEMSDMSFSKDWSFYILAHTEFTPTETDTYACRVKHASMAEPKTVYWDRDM
Chain of H-2 D^b (P01899 25-362): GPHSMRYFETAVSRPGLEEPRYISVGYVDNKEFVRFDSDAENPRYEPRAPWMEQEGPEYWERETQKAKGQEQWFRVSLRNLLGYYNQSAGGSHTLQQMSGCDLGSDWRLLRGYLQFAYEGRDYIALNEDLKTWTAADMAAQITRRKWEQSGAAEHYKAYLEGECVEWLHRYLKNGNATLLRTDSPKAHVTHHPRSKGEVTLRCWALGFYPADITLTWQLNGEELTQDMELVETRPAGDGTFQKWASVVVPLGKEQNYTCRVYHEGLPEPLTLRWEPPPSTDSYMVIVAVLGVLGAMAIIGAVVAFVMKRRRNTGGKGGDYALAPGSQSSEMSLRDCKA

Sequence | Normalized average relative binding affinity(ARB)
XXXHXXXXX [3064.0067] | 0.29
XXXIXXXXX [3064.0068] | 0.87
XXXKXXXXX [3064.0069] | 0.43
XXXLXXXXX [3064.0070] | 0.96
XXXMXXXXX [3064.0071] | 0.65
XXXNXXXXX [3064.0072] | 0.18

Each sequence was assayed against HLA B*1503 (Homo sapiens, UniProt P01889, A329T/A93T/A95T/C349S/D201E/D98Y/E187L/E204Q/K202T/N87E/Q94N/R155S/R180L/S121R/S35A/V306I/V36M/Y140S/Y91S) (assay: biochemical).
Format: binding

Sequence | Normalized average relative binding affinity(ARB)
XXXHXXXXX [3064.0067] | 0.29
XXXIXXXXX [3064.0068] | 0.26
XXXKXXXXX [3064.0069] | 0.30
XXXLXXXXX [3064.0070] | 0.46
XXXMXXXXX [3064.0071] | 1.0
XXXNXXXXX [3064.0072] | 0.76

The sequences below were run against HLA A*3201 (Homo sapiens, UniProt P04439, A270S/D101S/D185E/E176V/E277Q/F133L/G103R/G107R/G231S/H175R/I121M/I218V/I322F/K168Q/L105A/L300P/L318F/M331R/P208A/P217A/Q94H/R106L/R138Q/S129P/T104I/T323A/T345S/V100E/V321M/V358M) (assay: biochemical).
Format: binding

Sequence | Normalized average relative binding affinity(ARB)
XXXHXXXXX [3064.0067] | 0.32
XXXIXXXXX [3064.0068] | 0.15
XXXKXXXXX [3064.0069] | 0.39
XXXLXXXXX [3064.0070] | 0.098
XXXMXXXXX [3064.0071] | 0.58
XXXNXXXXX [3064.0072] | 0.59

Each sequence was assayed against HLA B*5101 (Homo sapiens, UniProt P01889, A329T/A93T/A95T/C349S/D138N/D201E/D98Y/E187L/E204Q/E69T/G107R/I218V/K202T/L105A/L119W/N104I/Q94N/R106L/R155S/R180L/S101N/S121T/S35A/S48A/V306I/V36M/Y195H/Y91F) (assay: not given).
Format: binding

Sequence | Normalized average relative binding affinity(ARB)
XXXHXXXXX [3064.0067] | 0.18
XXXIXXXXX [3064.0068] | 1.0
XXXKXXXXX [3064.0069] | 0.90
XXXLXXXXX [3064.0070] | 0.69
XXXMXXXXX [3064.0071] | 0.46
XXXNXXXXX [3064.0072] | 0.42

Each sequence was assayed against HLA B*5802 (Homo sapiens, UniProt P01889, A329T/C349S/D201E/D98Y/E176V/E187L/E204Q/E69T/G107R/I218V/I90N/K202T/L105A/N104I/N87E/Q89R/Q94S/R106L/R155S/R180L/R86G/S101N/S121W/S35A/S48A/V127L/V306I/V36M/Y140S/Y91M) (assay: not given).
Format: binding

Sequence | Normalized average relative binding affinity(ARB)
XXXHXXXXX [3064.0067] | 0.32
XXXIXXXXX [3064.0068] | 0.33
XXXKXXXXX [3064.0069] | 0.55
XXXLXXXXX [3064.0070] | 0.50
XXXMXXXXX [3064.0071] | 0.44
XXXNXXXXX [3064.0072] | 0.55

What follows are sequences tested against HLA B*0801 (Homo sapiens, UniProt P01889, A93T/A95T/D138N/E176V/E187T/K202T/Q94N/R180D/S35A/V36M/Y33D/Y91F) (assay: biochemical).
Format: binding

Sequence | Normalized average relative binding affinity(ARB)
XXXHXXXXX [3064.0067] | 0.26
XXXIXXXXX [3064.0068] | 0.38
XXXKXXXXX [3064.0069] | 0.52
XXXLXXXXX [3064.0070] | 0.61
XXXMXXXXX [3064.0071] | 1.0
XXXNXXXXX [3064.0072] | 0.48

What follows are sequences tested against H-2 K^d (Mus musculus, UniProt P01902) (assay: not given).
Format: binding

Chain of H-2 K^d (P01887 21-119): as the sequence (P01887 21-119) above
Chain of H-2 K^d (P01902 22-368): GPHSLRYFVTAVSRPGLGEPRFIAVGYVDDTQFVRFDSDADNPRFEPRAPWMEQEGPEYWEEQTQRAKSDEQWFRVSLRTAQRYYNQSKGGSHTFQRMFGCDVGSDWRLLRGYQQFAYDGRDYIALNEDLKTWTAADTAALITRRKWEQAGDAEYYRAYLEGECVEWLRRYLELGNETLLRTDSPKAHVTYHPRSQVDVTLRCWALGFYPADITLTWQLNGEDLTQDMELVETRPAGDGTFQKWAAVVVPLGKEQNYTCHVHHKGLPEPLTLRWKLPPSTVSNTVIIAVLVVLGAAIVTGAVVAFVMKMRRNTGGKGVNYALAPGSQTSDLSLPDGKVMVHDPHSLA

Sequence | Normalized average relative binding affinity(ARB)
XXXHXXXXX [3064.0067] | 0.22
XXXIXXXXX [3064.0068] | 0.22
XXXKXXXXX [3064.0069] | 0.23
XXXLXXXXX [3064.0070] | 0.17
XXXMXXXXX [3064.0071] | 0.22
XXXNXXXXX [3064.0072] | 0.24

These sequences were tested against HLA A*6802 (Homo sapiens, UniProt P04439, A269V/D140Y/D185E/E176V/E277Q/E87N/F33Y/G231S/I121R/I166T/I218V/L180W/L300P/L318F/N151K/P208A/P217A/Q86R/R138H/R169H/S129P/T345S/V36M) (assay: not given).
Format: binding

Sequence | Normalized average relative binding affinity(ARB)
XXXHXXXXX [3064.0067] | 0.30
XXXIXXXXX [3064.0068] | 0.088
XXXKXXXXX [3064.0069] | 0.095
XXXLXXXXX [3064.0070] | 0.14
XXXMXXXXX [3064.0071] | 0.55
XXXNXXXXX [3064.0072] | 0.27

What follows are sequences tested against HLA B*5801 (Homo sapiens, UniProt P01889, A329T/C349S/D201E/D98Y/E176V/E187L/E204Q/E69T/G107R/I218V/I90N/K202T/L105A/L119I/N104I/N87E/Q89R/Q94S/R106L/R155S/R180L/R86G/S101N/S121R/S35A/S48A/T118I/V127L/V306I/V36M/Y140S/Y91M) (assay: not given).
Format: binding

Sequence | Normalized average relative binding affinity(ARB)
XXXHXXXXX [3064.0067] | 0.40
XXXIXXXXX [3064.0068] | 0.23
XXXKXXXXX [3064.0069] | 0.44
XXXLXXXXX [3064.0070] | 0.42
XXXMXXXXX [3064.0071] | 0.54
XXXNXXXXX [3064.0072] | 0.46

Each sequence was assayed against HLA B*1501 (Homo sapiens, UniProt P01889, A329T/A93T/A95T/C349S/D201E/D98Y/E187L/E204Q/E69M/E70A/K202T/N87E/Q94N/R155S/R180W/S121R/S35A/S48A/V306I/V36M/Y140S/Y91S) (assay: biochemical).
Format: binding

Sequence | Normalized average relative binding affinity(ARB)
XXXHXXXXX [3064.0067] | 0.19
XXXIXXXXX [3064.0068] | 0.27
XXXKXXXXX [3064.0069] | 0.43
XXXLXXXXX [3064.0070] | 0.56
XXXMXXXXX [3064.0071] | 0.56
XXXNXXXXX [3064.0072] | 0.46

What follows are sequences tested against HLA B*5301 (Homo sapiens, UniProt P01889, A329T/A93T/A95T/C349S/D201E/D98Y/E176V/E187L/E204Q/E69T/G107R/I218V/K202T/L105A/L119I/N104I/Q94N/R106L/R155S/R180L/S101N/S121R/S35A/S48A/T118I/V127L/V306I/V36M/Y140S/Y91F) (assay: not given).
Format: binding

Sequence | Normalized average relative binding affinity(ARB)
XXXHXXXXX [3064.0067] | 0.089
XXXIXXXXX [3064.0068] | 0.18
XXXKXXXXX [3064.0069] | 0.12
XXXLXXXXX [3064.0070] | 0.17
XXXMXXXXX [3064.0071] | 0.46
XXXNXXXXX [3064.0072] | 0.27

These sequences were tested against H-2 K^k (Mus musculus, UniProt P04223) (assay: not given).
Format: binding

Chain of H-2 K^k (P01887 21-119): as the sequence (P01887 21-119) above
Chain of H-2 K^k (P04223 22-369): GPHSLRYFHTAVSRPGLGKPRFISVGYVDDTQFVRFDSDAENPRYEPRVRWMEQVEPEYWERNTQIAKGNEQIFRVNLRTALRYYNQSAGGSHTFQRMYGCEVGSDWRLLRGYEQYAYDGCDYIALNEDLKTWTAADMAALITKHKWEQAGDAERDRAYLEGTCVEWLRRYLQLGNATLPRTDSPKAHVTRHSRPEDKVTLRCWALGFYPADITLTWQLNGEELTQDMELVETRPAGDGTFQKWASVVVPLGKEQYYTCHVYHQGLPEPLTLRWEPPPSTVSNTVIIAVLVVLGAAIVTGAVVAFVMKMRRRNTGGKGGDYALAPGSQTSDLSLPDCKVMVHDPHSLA

Sequence | Normalized average relative binding affinity(ARB)
XXXHXXXXX [3064.0067] | 0.13
XXXIXXXXX [3064.0068] | 0.39
XXXKXXXXX [3064.0069] | 0.26
XXXLXXXXX [3064.0070] | 0.96
XXXMXXXXX [3064.0071] | 0.42
XXXNXXXXX [3064.0072] | 0.22

What follows are sequences tested against HLA B*3501 (Homo sapiens, UniProt P01889, A329T/A93T/A95T/C349S/D201E/D98Y/E176V/E187L/E204Q/E69T/I218V/K202T/L119I/Q94N/R155S/R180L/S121R/S35A/S48A/T118I/V127L/V306I/V36M/Y140S/Y91F) (assay: not given).
Format: binding

Sequence | Normalized average relative binding affinity(ARB)
XXXHXXXXX [3064.0067] | 0.16
XXXIXXXXX [3064.0068] | 1.0
XXXKXXXXX [3064.0069] | 0.097
XXXLXXXXX [3064.0070] | 0.10
XXXMXXXXX [3064.0071] | 0.27
XXXNXXXXX [3064.0072] | 0.079
